Laboratory results reported in patent EP0448765A1, “Use of guanidine derivatives for the manufacture of a medicament with NPY-antagonistic activity” (HEUMANN PHARMA GMBH & CO, priority 1990, dated 1991).

target: T1, spezifischen NPY-Rezeptors (Homo sapiens, UniProt P25929); experiment: Inhibition of the NPY-induced rise of intracellular Ca++ in HEL cells (fluorimetric, Fura-2; method of Motulsky and Michel); type: cell-based; settings: HEL-Zellen, antagonists added at 10⁻⁴ bis 10⁻⁶ (unit inferred), Schild-Plot-Analyse, read-out: pA2 Hemmung des Ca^++-Anstieges (converted)
T1 construct: intrazellulären Ca⁺⁺-Konzentration in HEL-Zellen (Human Erythroleukemia-Zellen) fluorimetrisch mit Fura-2 als Indikator gemessen; endogenous in cells; host or cells: HEL (human erythroleukemia) cells
T1 sequence (P25929 1-384): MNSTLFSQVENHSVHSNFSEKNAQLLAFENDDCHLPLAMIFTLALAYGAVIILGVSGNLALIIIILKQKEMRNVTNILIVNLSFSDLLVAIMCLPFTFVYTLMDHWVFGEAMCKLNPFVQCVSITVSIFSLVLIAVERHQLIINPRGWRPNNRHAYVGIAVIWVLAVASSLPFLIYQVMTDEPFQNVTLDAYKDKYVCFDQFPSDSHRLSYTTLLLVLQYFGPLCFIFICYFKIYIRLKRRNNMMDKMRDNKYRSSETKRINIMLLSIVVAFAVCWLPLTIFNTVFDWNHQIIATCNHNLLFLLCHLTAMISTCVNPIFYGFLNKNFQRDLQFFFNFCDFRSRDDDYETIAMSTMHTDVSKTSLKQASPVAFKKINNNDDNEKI
From the text: Die Neuropeptid-Y-antagonistische Wirkung der erfindungsgemäß verwendeten Verbindungen wurde anhand der Methode von Motulsky und Michel (Motulsky, H.J., Michel, M.C., Am. J. Physiol. 255, 880 (1988)) nachgewiesen.
Bei dieser Methode wird der durch NPY induzierte Anstieg der intrazellulären Ca⁺⁺-Konzentration in HEL-Zellen (Human Erythroleukemia-Zellen) fluorimetrisch mit Fura-2 als Indikator gemessen. Unter den gegebenen Bedingungen bewirkt NPY einen konzentrationsabhängigen Anstieg der intrazellulären Ca⁺⁺-Konzentration über die Stimulation des spezifischen NPY-Rezeptors.
Zur Messung der Hemmwirkung der zu testenden Antagonisten werden diese in Konzentrationen von 10⁻⁴ bis 10⁻⁶ dem Inkubationsmedium zugesetzt. Dann wird erneut eine NPY-Wirkungskurve bestimmt.
Die erfindungsgemäß verwendeten Guanidinverbindungen verschieben die NPY-Konzentrationswirkungskurve nach rechts. Die Rechtsverschiebung ist nach Schild-Plot-Analyse kompetitiv. Die Substanzen antagonisieren demnach die NPY-Wirkung durch Konkurrenz am spezifischen NPY-Rezeptor.

Kb [µM] | Compound
100 | N=C(NCCCc1c[nH]cn1)NCCOC(c1ccccc1)c1ccccc1 [Verbindung A, N¹-[3-(1H-Imidazol-4-yl)propyl]-N²-[2-(diphenylmethoxy)ethyl]-guanidin]
19.1 | N=C(NCCCc1c[nH]cn1)NCCC(c1cc(F)cc(F)c1)c1ccccn1 (stereo not shown) [Verbindung B, N¹-[3-(3,5-Difluorphenyl)-3-(pyridin-2-yl)propyl]-N²-[3-(1H-imidazol-4-yl)propyl]-guanidin]
1.32 | Cc1cc(Br)cnc1N(CCNC(=N)NCCCc1c[nH]cn1)Cc1ccccc1 [Verbindung C, N¹-[2-[N-(5-Brom-3-methyl-pyridin-2-yl)benzylamino]-ethyl]-N²-[3-(1H-imidazol-4-yl)propyl]-guanidin]
9.12 | Cc1cc(Br)cnc1CCCCNC(=N)NCCCc1c[nH]cn1 [Verbindung D, N¹-[4-(5-Brom-3-methyl-pyridin-2-yl)butyl]-N²-[3-(1H-imidazol-4-yl)propyl]-guanidin]
